Experimental data: US9296725B2, “Heterocyclyl pyrimidine analogues as TYK2 inhibitors” (Cellzome Limited, priority 2012, dated 2016)
Where two headings read alike, the source gives them in different places.

Legend:
TYK2 = target: T1, TYK2 (Homo sapiens, UniProt P29597); experiment: Kinobeads assay, TYK2 (competition binding in mixed Molt4/Ramos cell lysate, dot blot detection)
T1 construct: endogenous in cells; host or cells: Molt4 (ATCC CRL-1582) and Ramos (ATCC CRL-1596), mixed lysate 1:2
How it was run: (§1)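 Competition binding: compound dilutions (1:3 series, 9 steps) plus immobilized aminopyrido-pyrimidine beads incubated 3 h in the cold with mixed Molt4/Ramos lysate (1:2) at 10 mg/mL protein. Bead-bound JAK2/TYK2 eluted and quantified by antibody dot blot with infrared detection; IC50 from dose-response curves.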

JAK2 = target: T2, JAK2 (Homo sapiens, UniProt O60674); experiment: Kinobeads assay, JAK2 (competition binding in mixed Molt4/Ramos cell lysate, dot blot detection); conditions: read-out: JAK2 Band (Kinobeads assay potency, IC50)
T2 construct: endogenous in cells; host or cells: Molt4 (ATCC CRL-1582) and Ramos (ATCC CRL-1596), mixed lysate 1:2
How it was run: as §1

[1] = Kinobeads assay, Molt4/Ramos lysate, read-out: TYK2 Band (Kinobeads assay potency, IC50)

T1 sequence (P29597 whole entry): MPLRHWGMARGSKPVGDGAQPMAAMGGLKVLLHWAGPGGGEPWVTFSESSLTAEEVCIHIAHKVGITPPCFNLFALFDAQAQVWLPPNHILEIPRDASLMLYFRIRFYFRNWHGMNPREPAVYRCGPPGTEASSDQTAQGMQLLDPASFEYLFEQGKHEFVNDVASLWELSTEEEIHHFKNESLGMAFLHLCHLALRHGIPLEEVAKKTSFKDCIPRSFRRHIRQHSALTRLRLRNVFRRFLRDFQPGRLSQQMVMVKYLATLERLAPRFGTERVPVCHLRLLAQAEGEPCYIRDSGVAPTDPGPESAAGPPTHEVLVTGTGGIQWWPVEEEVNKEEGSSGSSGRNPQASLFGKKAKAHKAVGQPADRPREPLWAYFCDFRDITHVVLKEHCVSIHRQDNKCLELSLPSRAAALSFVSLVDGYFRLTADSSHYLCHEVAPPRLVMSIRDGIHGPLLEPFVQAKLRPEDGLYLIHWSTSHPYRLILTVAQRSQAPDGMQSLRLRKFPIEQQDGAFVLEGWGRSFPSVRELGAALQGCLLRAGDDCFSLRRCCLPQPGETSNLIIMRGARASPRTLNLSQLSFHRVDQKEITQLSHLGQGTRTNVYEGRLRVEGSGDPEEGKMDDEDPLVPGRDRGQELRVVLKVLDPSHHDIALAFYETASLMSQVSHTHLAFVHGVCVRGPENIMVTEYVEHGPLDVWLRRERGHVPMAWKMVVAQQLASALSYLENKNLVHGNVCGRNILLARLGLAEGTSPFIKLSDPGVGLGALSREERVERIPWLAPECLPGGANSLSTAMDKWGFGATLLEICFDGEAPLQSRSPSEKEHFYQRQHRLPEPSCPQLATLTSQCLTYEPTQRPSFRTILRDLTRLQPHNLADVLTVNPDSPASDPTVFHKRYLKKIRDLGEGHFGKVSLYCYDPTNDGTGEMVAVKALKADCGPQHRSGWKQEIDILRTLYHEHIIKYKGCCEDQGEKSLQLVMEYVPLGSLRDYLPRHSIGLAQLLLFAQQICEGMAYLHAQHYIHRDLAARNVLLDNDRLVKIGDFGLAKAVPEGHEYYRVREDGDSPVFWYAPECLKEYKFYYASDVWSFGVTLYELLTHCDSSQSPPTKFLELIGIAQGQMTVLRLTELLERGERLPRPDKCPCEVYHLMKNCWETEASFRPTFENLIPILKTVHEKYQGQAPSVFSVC
T2 sequence (O60674 whole entry): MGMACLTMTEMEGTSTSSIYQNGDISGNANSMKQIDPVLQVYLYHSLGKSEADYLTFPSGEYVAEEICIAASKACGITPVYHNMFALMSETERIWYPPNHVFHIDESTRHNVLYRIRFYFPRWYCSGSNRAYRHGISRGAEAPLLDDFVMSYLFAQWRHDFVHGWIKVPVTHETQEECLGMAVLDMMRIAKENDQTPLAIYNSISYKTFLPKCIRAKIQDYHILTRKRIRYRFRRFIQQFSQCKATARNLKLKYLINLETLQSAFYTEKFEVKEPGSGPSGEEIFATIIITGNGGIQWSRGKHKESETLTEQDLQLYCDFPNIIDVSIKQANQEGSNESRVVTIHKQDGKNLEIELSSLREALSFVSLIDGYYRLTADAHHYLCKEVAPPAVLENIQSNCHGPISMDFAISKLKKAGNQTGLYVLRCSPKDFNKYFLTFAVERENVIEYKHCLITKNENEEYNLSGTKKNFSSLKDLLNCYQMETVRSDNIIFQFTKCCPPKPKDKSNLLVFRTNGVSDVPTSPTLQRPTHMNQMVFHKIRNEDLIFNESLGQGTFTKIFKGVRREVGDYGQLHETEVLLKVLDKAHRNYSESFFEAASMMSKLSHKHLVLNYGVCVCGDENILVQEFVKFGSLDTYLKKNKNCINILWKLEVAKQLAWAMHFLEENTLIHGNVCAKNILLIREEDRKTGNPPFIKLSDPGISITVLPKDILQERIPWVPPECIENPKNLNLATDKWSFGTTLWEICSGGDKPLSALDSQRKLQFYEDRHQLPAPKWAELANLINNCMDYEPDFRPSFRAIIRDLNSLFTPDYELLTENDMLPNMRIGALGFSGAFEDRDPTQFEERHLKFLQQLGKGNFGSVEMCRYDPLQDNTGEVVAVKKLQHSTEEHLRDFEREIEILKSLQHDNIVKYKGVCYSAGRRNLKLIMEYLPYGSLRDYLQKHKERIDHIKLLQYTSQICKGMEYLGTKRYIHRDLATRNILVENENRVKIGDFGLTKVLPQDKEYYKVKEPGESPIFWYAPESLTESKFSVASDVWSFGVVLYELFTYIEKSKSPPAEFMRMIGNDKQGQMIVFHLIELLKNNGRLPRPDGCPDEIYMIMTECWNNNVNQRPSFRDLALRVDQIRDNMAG

| SMILES | IC50 (TYK2; [1]) | IC50 (JAK2) | IC50 (TYK2; read-out: TYK2 IC50) |
| --- | --- | --- | --- |
| COc1ccc(S(C)(=O)=O)cc1CNc1nc(Nc2cnn(CC(F)F)c2)ncc1F [Example I-480] | 100 to 1000 nM | 1000 to 10000 nM | – |
| Cn1ccnc1Cn1cc(Nc2ncc(Cl)c(NCc3ccccc3)n2)cn1 [Example I-248] | 100 to 1000 nM | 1000 to 10000 nM | – |
| Cc1noc(Cn2cc(Nc3ncc(Cl)c(NCc4c(F)cccc4F)n3)cn2)n1 [Example I-483] | 100 to 1000 nM | 1000 to 10000 nM | – |
| Cc1cnc(Nc2cnn(CC(=O)N3CCOCC3)c2)nc1NCc1ccccc1 [Example I-296] | 10 to 100 nM | 1000 to 10000 nM | – |
| OCCn1cc(Nc2ncc(Cl)c(NCc3c(F)cc(F)cc3F)n2)cn1 [Example I-15] | 10 to 100 nM | 100 to 1000 nM | – |
| NS(=O)(=O)c1ccc(CNc2nc(Nc3cnn(CC(=O)N4CCOCC4)c3)ncc2F)cc1 [Example I-11] | 10 to 100 nM | > 10000 nM | – |
| COc1ccc(Cl)c(CNc2nc(Nc3cnn(C)c3)ncc2F)c1F [Example I-85] | 10 to 100 nM | 100 to 1000 nM | – |
| Cc1cnc(Nc2cnn(CC(=O)N3CCOCC3)c2)nc1NCc1c(F)cc(S(N)(=O)=O)cc1F [Example I-378] | ≤ 10 nM | 100 to 1000 nM | – |
| NC(=O)Cn1cc(Nc2nccc(NCc3c(F)cc(F)cc3F)n2)cn1 [Example I-311] | 10 to 100 nM | 1000 to 10000 nM | – |
| NC(=O)Cn1cc(Nc2ncc(Cl)c(NCc3ccccc3)n2)cn1 [Example I-206] | 100 to 1000 nM | 100 to 1000 nM | – |
| OCCn1cc(Nc2ncc(Cl)c(NCc3ccccn3)n2)cn1 [Example I-247] | 1000 to 10000 nM | 100 to 1000 nM | – |
| Fc1cccc(CNc2nc(Nc3cn[nH]c3)ncc2Cl)c1 [Example I-370] | 100 to 1000 nM | 100 to 1000 nM | – |
| Cc1cnc(Nc2cnn(CC(F)F)c2)nc1NCc1ccccc1S(C)(=O)=O [Example I-478] | 1000 to 10000 nM | > 10000 nM | – |
| CC(O)Cn1cc(Nc2ncc(Cl)c(NCc3c(F)cccc3F)n2)cn1 (stereo not shown) [Example I-209] | 10 to 100 nM | 1000 to 10000 nM | – |
| COc1ccc(S(C)(=O)=O)cc1CNc1nc(Nc2cnn(C)c2)ncc1F [Example I-446] | 10 to 100 nM | 1000 to 10000 nM | – |
| CNC(=O)Cn1cc(Nc2ncc(F)c(NCc3c(Cl)cccc3Cl)n2)cn1 [Example I-329] | 10 to 100 nM | 1000 to 10000 nM | – |
| C[C@@H](CO)NC(=O)Cn1cc(Nc2ncc(F)c(NCc3c(F)cc(F)cc3F)n2)cn1 [Example I-42] | ≤ 10 nM | 1000 to 10000 nM | – |
| Cc1cnc(Nc2cnn(C)c2)nc1NCc1c(F)cc(F)cc1F [Example I-301] | 10 to 100 nM | 1000 to 10000 nM | – |
| COc1ccc(F)c(CNc2ccnc(Nc3cnn(CC(=O)NC(C)C)c3)n2)c1F [Example I-65] | 10 to 100 nM | 1000 to 10000 nM | < 100 nM |
| OCCn1cc(Nc2ncc(Cl)c(NCc3ccccc3)n2)cn1 [Example I-192] | 10 to 100 nM | 100 to 1000 nM | – |
| O=C(Cn1cc(Nc2nccc(NCc3c(F)cccc3F)n2)cn1)N1CCOCC1 [Example I-28] | ≤ 10 nM | 1000 to 10000 nM | – |
| Cc1cnc(Nc2cnn(CC(=O)N3CCOCC3)c2)nc1NCc1c(F)cccc1F [Example I-305] | ≤ 10 nM | 100 to 1000 nM | – |
| Cn1cc(Nc2nccc(NCc3c(F)ccc(C#N)c3F)n2)cn1 [Example I-135] | 10 to 100 nM | 1000 to 10000 nM | – |
| Cn1cc(Nc2ncc(F)c(NCc3cccc(F)c3F)n2)cn1 [Example I-177] | 100 to 1000 nM | 1000 to 10000 nM | – |
| CNS(=O)(=O)c1ccccc1CNc1nc(Nc2cnn(C)c2)ncc1Cl [Example I-473] | 100 to 1000 nM | 100 to 1000 nM | – |
| C[C@H](CO)NC(=O)Cn1cc(Nc2nccc(NCc3c(F)ccc(C#N)c3F)n2)cn1 [Example I-154] | ≤ 10 nM | 1000 to 10000 nM | – |

| SMILES | IC50 (TYK2; [1]) | IC50 (JAK2) | IC50 (TYK2; read-out: TYK2 IC50) |
| --- | --- | --- | --- |
| O=C(Cn1cc(Nc2ncc(F)c(NCc3c(Cl)cccc3Cl)n2)cn1)N1CCOCC1 [Example I-49] | 10 to 100 nM | 1000 to 10000 nM | – |
| COc1ccc(F)c(CNc2nc(Nc3cnn(CC(N)=O)c3)ncc2F)c1F [Example I-384] | 10 to 100 nM | 1000 to 10000 nM | – |
| CN(C)C(=O)Cn1cc(Nc2ncc(F)c(NCc3cc(F)cc(C(F)(F)F)c3)n2)cn1 [Example I-331] | 100 to 1000 nM | 1000 to 10000 nM | – |
| CC1(C)CN(C(=O)Cn2cc(Nc3nccc(NCc4c(F)cc(F)cc4F)n3)cn2)C1 [Example I-458] | 10 to 100 nM | > 10000 nM | – |
| C[C@H](CO)NC(=O)Cn1cc(Nc2nccc(NCc3c(F)cc(F)cc3F)n2)cn1 [Example I-456] | 10 to 100 nM | 1000 to 10000 nM | – |
| Cc1cnc(Nc2cnn(C)c2)nc1NCc1cc(F)cc(F)c1F [Example I-342] | 10 to 100 nM | 10 to 100 nM | – |
| CS(=O)(=O)c1ccccc1CNc1nc(Nc2cnn(CC(=O)N3CCOCC3)c2)ncc1Cl [Example I-453] | 100 to 1000 nM | 100 to 1000 nM | – |
| CC(C)NC(=O)Cn1cc(Nc2ncc(F)c(NCc3c(F)cccc3F)n2)cn1 [Example I-66] | ≤ 10 nM | 1000 to 10000 nM | – |
| O=C(Cn1cc(Nc2ncc(Cl)c(NCc3ccccc3)n2)cn1)N1CCCC1 [Example I-196] | 10 to 100 nM | 1000 to 10000 nM | – |
| CN(C)C(=O)Cn1cc(Nc2ncc(Cl)c(NCc3c(F)ccc(F)c3F)n2)cn1 [Example I-360] | ≤ 10 nM | 100 to 1000 nM | – |
| CC(NC(=O)Cn1cc(Nc2nccc(NCc3c(F)cc(F)cc3F)n2)cn1)C1CCOC1 (stereo not shown) [Example I-105] | 10 to 100 nM | > 10000 nM | – |
| Cc1cnc(Nc2cnn(CC(F)F)c2)nc1NCc1ccc(S(N)(=O)=O)cc1 [Example I-465] | 100 to 1000 nM | 1000 to 10000 nM | – |
| Cc1cnc(Nc2cnn(CCO)c2)nc1NCc1c(F)cccc1F [Example I-298] | ≤ 10 nM | 100 to 1000 nM | – |
| C[C@@H](CO)NC(=O)Cn1cc(Nc2nccc(NCc3c(F)cccc3F)n2)cn1 [Example I-151] | 10 to 100 nM | 1000 to 10000 nM | – |
| CNC(=O)Cn1cc(Nc2ncc(Cl)c(NCc3ccccc3S(C)(=O)=O)n2)cn1 [Example I-451] | 1000 to 10000 nM | 1000 to 10000 nM | – |
| CC(C)NC(=O)Cn1cc(Nc2nccc(NCc3c(F)ccc(F)c3F)n2)cn1 [Example I-63] | ≤ 10 nM | 1000 to 10000 nM | – |
| OCCn1cc(Nc2ncc(F)c(NCc3c(F)cccc3F)n2)cn1 [Example I-204] | ≤ 10 nM | 1000 to 10000 nM | – |
| Cc1cnc(Nc2cnn(CC(=O)N3CCOCC3)c2)nc1NCc1cc(F)cc(F)c1 [Example I-348] | 10 to 100 nM | 10 to 100 nM | – |
| C[C@@H](CO)NC(=O)Cn1cc(Nc2nccc(NCc3c(F)cncc3F)n2)cn1 [Example I-146] | 10 to 100 nM | > 10000 nM | – |
| CC(C)(C)NC(=O)Cn1cc(Nc2ncc(F)c(NCc3c(F)cc(F)cc3F)n2)cn1 [Example I-429] | 10 to 100 nM | 1000 to 10000 nM | – |
| OCCn1cc(Nc2ncc(Cl)c(NCc3cccc(OC(F)F)c3)n2)cn1 [Example I-322] | 10 to 100 nM | 1000 to 10000 nM | – |
| CC(C)(O)Cn1cc(Nc2ncc(Cl)c(NCc3cc(F)ccc3F)n2)cn1 [Example I-292] | 100 to 1000 nM | 100 to 1000 nM | – |
| Cn1cc(Nc2ncc(Cl)c(NCc3cc(C(F)(F)F)ccc3Cl)n2)cn1 [Example I-278] | 100 to 1000 nM | 1000 to 10000 nM | – |
| Cc1scnc1Cn1cc(Nc2ncc(Cl)c(NCc3c(F)cccc3F)n2)cn1 [Example I-484] | 100 to 1000 nM | 100 to 1000 nM | – |
| CC(C)CNC(=O)Cn1cc(Nc2ncc(Cl)c(NCc3cccc(OC(F)F)c3)n2)cn1 [Example I-392] | 10 to 100 nM | 1000 to 10000 nM | – |
